Laboratory results: US20180251495A1, “Skin-Penetrating Peptides and Compositions and Methods of Use Thereof” (The Regents of the University of California, priority 2015, published 2018)
Where two headings read alike, the source gives them in different places. Where a SMILES comes first, the peptide text is derived from it. Bridges are numbered along the chain shown (N, C = ends). Where no end group is shown, it is not given here.

B1: SPACE™ peptide (…) (peptide)
peptide: ACTGSTQHQCG
modifications: disulfide 2-10 (inferred)
B2: SP7-4 (…) (peptide)
peptide: ACTSTGRNACG
modifications: disulfide 2-10 (inferred)
B3: SP7-1 (…) (peptide)
peptide: ACSATLQHSCG
modifications: disulfide 2-10 (inferred)
B4: SP7-5 (…) (peptide)
peptide: ACSASTNHNCG
modifications: disulfide 2-10 (inferred)
B5: SP7-3 (…) (peptide)
peptide: ACLSVNHNACG
modifications: disulfide 2-10 (inferred)
B6: SP7-2 (…) (peptide)
peptide: ACSLTVNWNCG
modifications: disulfide 2-10 (inferred)

Legend:
[1] = test system: HEKa cells (human adult epidermal keratinocytes); test: MTT cytotoxicity assessment in keratinocytes; assay type: cell-based; details: overnight incubation, MTT
Experimental: (§1) HEKa cells were cultured in 1× keratinocyte Serum-Free Medium supplemented with 25 U/mL penicillin, 25 μg/mL streptomycin, and 50 μg/mL neomycin. Cultures were grown at 37° C. with 5% CO2. The cytotoxicity of SPPs was assessed using the MTT Cell Proliferation Assay (ATCC, Manassas, Va.). HEKa cells were seeded in 96-well microplates (Corning Inc., Corning, N.Y.) at a density of 5000 cells/well. Cultures were allowed to grow until they reached ˜80% confluency. Cells were then incubated with 200 μL of 10, 5, or 2.5 mg/mL of selected SPPs in media. The pH was adjusted to afford complete dissolution of peptides. Media only was used as a negative control, and media or SPP formulations without cells was used to subtract background. Cytotoxicity was assessed after overnight incubation. Viability was determined according to the manufacturer's recommended protocol using a SAFIRE, XFLUOR4, V4.50 microplate reader (Tecan Group Ltd, Morrisville, N.Y.).
(§2) To assess the potential for skin toxicity, SPPs were incubated with HEKa cells overnight and % viability was determined. HEKa cells were used since keratinocytes are the primary cell-type in the skin, and therefore, represent a good estimate of the potential for skin irritation.

[2] = In vitro skin permeation of radiolabelled SPPs in Franz diffusion cells; assay type: in vitro ADME, porcine
Experimental: Test formulations were loaded and incubated as described.
The skin penetrating ability of the selected heptamer (SP7-1 through SP7-5) SPPs was evaluated in comparison with SPACE™. […] Radiolabelled peptides were loaded on Franz diffusion cells (FDCs) and incubated at 37° C. with moderate stirring. After 24 hours, the various skin layers were harvested, dissolved and analyzed using a scintillation counter to determine the amount of peptide.

[3] = for solubility in PBS: PBS pH 8.0
[4] = MTT cytotoxicity assessment in keratinocytes; assay type: cell-based, human; details: human, HEKa cells (adult epidermal keratinocytes); HEKa cells exposed to 5 mg/mL peptide in solution
Experimental: as §1, §2

human keratin (human) [5] = test: batch affinity chromatography, peptide on Toyopearl resin, human keratin in solution, Langmuir fit
human keratin (human) [6] = test: batch adsorption isotherm (affinity chromatography): peptide coupled to Toyopearl AF-Epoxy-650 resin, human keratin in PBS pH 7.4 in solution, Langmuir fit
[7] = peptide amount after 24 hours, 37° C.

| Molecule | toxicity to HEKa cells [1] | Skin permeation, Dermis [2, 7] | Skin permeation, Receptor [2, 7] | Skin permeation, SC + Epidermis [2, 7] | Experimental Qmax (human keratin (human) [5]) | Kd (human keratin (human) [5]) | Kd (human keratin (human) [6]) | also measured |
| --- | --- | --- | --- | --- | --- | --- | --- | --- |
| C[C@H](N)C(=O)N[C@H]1CSSC[C@@H](C(=O)NCC(=O)O)NC(=O)[C@H](CC(N)=O)NC(=O)[C@H](CCCNC(=N)N)NC(=O)CNC(=O)[C@H]([C@@H](C)O)NC(=O)[C@H](Cc2c[nH]cn2)NC(=O)[C@H]([C@@H](C)O)NC1=O [SP6-1, ACTHTGRNCG] (H-ACTHTGRNCG-OH; disulfide 2-9; N-terminus and C-terminus assumed) | no observable toxicity | – | – | – | – | – | – | toxicity to HEKa cells ([1]; listed as hexamer): non-toxic at concentrations as high as 10 mg/mL |
| C[C@H](N)C(=O)N[C@H]1CSSC[C@@H](C(=O)NCC(=O)O)NC(=O)[C@H]([C@@H](C)O)NC(=O)[C@H](CO)NC(=O)[C@H](CCCNC(=N)N)NC(=O)[C@H](C)NC(=O)[C@H](CCC(N)=O)NC(=O)[C@H](Cc2c[nH]cn2)NC(=O)[C@H](C)NC(=O)[C@H](CC(N)=O)NC1=O [SP8-1, ACNAHQARSTCG] (H-ACNAHQARSTCG-OH; disulfide 2-11; N-terminus and C-terminus assumed) | no observable toxicity | – | – | – | – | – | – | toxicity to HEKa cells ([1]; listed as octamer): non-toxic at concentrations as high as 10 mg/mL |
| CC(C)C[C@@H]1NC(=O)[C@H]([C@@H](C)O)NC(=O)[C@H](C)NC(=O)[C@H](CO)NC(=O)[C@@H](NC(=O)[C@H](C)N)CSSC[C@@H](C(=O)NCC(=O)O)NC(=O)[C@H](CO)NC(=O)[C@H](Cc2c[nH]cn2)NC(=O)[C@H](CCC(N)=O)NC1=O [SP7-1, ACSATLQHSCG] (H-ACSATLQHSCG-OH; disulfide 2-10; N-terminus and C-terminus assumed) | only toxic when at 10 mg/mL | 149.7 ± 5.6 μg/cm^2 | 42.4 ± 8.5 μg/cm^2 | 819.2 ± 62.2 μg/cm^2 | – | – | – | pH adjusted to achieve complete solubility ([3]; PBS): 8.5 |
| CC(C)C[C@@H]1NC(=O)[C@@H](NC(=O)[C@H](C)N)CSSC[C@@H](C(=O)NCC(=O)O)NC(=O)[C@H](C)NC(=O)[C@H](CC(N)=O)NC(=O)[C@H](Cc2c[nH]cn2)NC(=O)[C@H](CC(N)=O)NC(=O)[C@H](C(C)C)NC(=O)[C@H](CO)NC1=O [SP7-3, ACLSVNHNACG] (H-ACLSVNHNACG-OH; disulfide 2-10; N-terminus and C-terminus assumed) | significantly toxic (p <0.001) at only 1 mg/mL | 39.5 ± 25.4 μg/cm^2 | 16.9 ± 11.3 μg/cm^2 | 759.9 ± 73.4 μg/cm^2 | – | – | – | solubility in presence of CsA ([3]; in presence of CsA): could not be fully solubilized |
| C[C@H](N)C(=O)N[C@H]1CSSC[C@@H](C(=O)NCC(=O)O)NC(=O)[C@H](CCC(N)=O)NC(=O)[C@H](Cc2c[nH]cn2)NC(=O)[C@H](CCC(N)=O)NC(=O)[C@H]([C@@H](C)O)NC(=O)[C@H](CO)NC(=O)CNC(=O)[C@H]([C@@H](C)O)NC1=O [SPACE™, ACTGSTQHQCG, reference compound] (H-ACTGSTQHQCG-OH; disulfide 2-10; N-terminus and C-terminus assumed) | – | – | – | – | – | – | – | Skin permeation, Dermis [2]: 200.6 ± 59.3 μg/cm^2; Skin permeation, Receptor [2]: 96.0 ± 31.1 μg/cm^2; Skin permeation, SC + Epidermis [2]: 782.5 ± 84.7 μg/cm^2; viability at 5000 µg/mL [4]: 99.4 ± 3.9% |
| CC(C)C[C@@H]1NC(=O)[C@H](CO)NC(=O)[C@@H](NC(=O)[C@H](C)N)CSSC[C@@H](C(=O)NCC(=O)O)NC(=O)[C@H](CC(N)=O)NC(=O)[C@H](Cc2c[nH]c3ccccc23)NC(=O)[C@H](CC(N)=O)NC(=O)[C@H](C(C)C)NC(=O)[C@H]([C@@H](C)O)NC1=O [SP7-2, ACSLTVNWNCG] (H-ACSLTVNWNCG-OH; disulfide 2-10; N-terminus and C-terminus assumed) | – | 166.7 ± 45.2 μg/cm^2 | 65.0 ± 14.1 μg/cm^2 | 774.0 ± 110.2 μg/cm^2 | – | – | – | solubility in PBS [3]: did not give any solubility problems; toxicity to HEKa cells ([1]; listed as SP-2): some toxicity for all concentrations tested, however, the results were not statistically significant |
| C[C@H](N)C(=O)N[C@H]1CSSC[C@@H](C(=O)NCC(=O)O)NC(=O)[C@H](C)NC(=O)[C@H](CC(N)=O)NC(=O)[C@H](CCCNC(=N)N)NC(=O)CNC(=O)[C@H]([C@@H](C)O)NC(=O)[C@H](CO)NC(=O)[C@H]([C@@H](C)O)NC1=O [SP7-4, ACTSTGRNACG] (H-ACTSTGRNACG-OH; disulfide 2-10; N-terminus and C-terminus assumed) | significantly toxic (p <0.001) at only 1 mg/mL | 53.7 ± 31.1 μg/cm^2 | 19.8 ± 19.8 μg/cm^2 | 545.2 ± 79.1 μg/cm^2 | – | – | – | solubility in PBS [3]: did not give any solubility problems |
| C[C@H](N)C(=O)N[C@H]1CSSC[C@@H](C(=O)NCC(=O)O)NC(=O)[C@H](CC(N)=O)NC(=O)[C@H](Cc2c[nH]cn2)NC(=O)[C@H](CC(N)=O)NC(=O)[C@H]([C@@H](C)O)NC(=O)[C@H](CO)NC(=O)[C@H](C)NC(=O)[C@H](CO)NC1=O [SP7-5, ACSASTNHNCG] (H-ACSASTNHNCG-OH; disulfide 2-10; N-terminus and C-terminus assumed) | significantly toxic (p <0.001) at only 1 mg/mL | 124.3 ± 28.2 μg/cm^2 | 39.5 ± 8.5 μg/cm^2 | 759.9 ± 62.1 μg/cm^2 | – | – | – | solubility in PBS [3]: did not give any solubility problems; viability at 5000 µg/mL [4]: 60.1 ± 2.6% |
| B1 | – | – | – | – | 3.98 mg/mL resin | 10.6 µM | 477 µg/mL | – |
| B2 | – | – | – | – | 3.43 mg/mL resin | 15.8 µM | 716 µg/mL | – |
| B3 | – | – | – | – | 4.16 mg/mL resin | 8.02 µM | 361 µg/mL | – |
| B4 | – | – | – | – | 4.01 mg/mL resin | 10.1 µM | 456 µg/mL | – |
| B5 | – | – | – | – | 4.07 mg/mL resin | 9.4 µM | 423 µg/mL | – |
| B6 | – | – | – | – | 4.09 mg/mL resin | 8.73 µM | 393 µg/mL | – |
